Structures are written as SMILES. Marks after values point to notes of the source that are not given here.

Experimental findings from patent US20040106135A1, “Assay for PPAR ligand dependent gene modulation” (priority 2002, published 2004) are described below.

In experiment [1] the test system is Caki-1 cells. The experiment can be described thus: Transcriptional profiling by DNA microarray, Caki-1 cells. It is filed as cell-based, human. How it is done:
(§1) Expression profiling: Expression profiling of RNA samples was performed essentially as described (Lockhart et al., (1996) Nat. Biotechnol. 14:1675-80) using the Affymetrix human U95Av2 array. Briefly, RNA was isolated from 100 mm cell culture dishes, DNased, and 15 μg used as a template for double stranded cDNA synthesis according to standard protocols (Invitrogen). Reverse transcription was primed using a T7-modified oligo-dT primer (5-[…]-d(T)24-3′) (SEQ ID NO: 1). In vitro transcription was then performed on each double stranded cDNA synthesis, according to the manufacturer's (Enzo Diagnostics) instructions. The resultant cRNA products were purified using RNeasy columns (Qiagen), pooled, and quantitated spectrophotometrically. For each sample, 20 μg of in vitro transcribed cRNA was fragmented by heating the sample to 94° C. in the presence of 40 mM Tris-acetate, pH 8.1, 100 mM potassium acetate, and 30 mM magnesium acetate. […]
(§2) Data Analysis: Affymetrix CEL files from GeneChip 4.0 (Affymetrix) were imported into Resolver 2.0 under an empirically derived Affymetrix error model (Rosetta Inpharmatics). […] Accordingly, the statistical significance (P-value) of a given expression data point takes into account the underlying error associated with the Affymetrix transcript abundance measurements as determined by this platform-specific error model. […]

Experiment [2] deals with HepG2 cells. The experiment can be described thus: Transcriptional profiling by DNA microarray, HepG2 cells. It is filed as cell-based, human. The note with it: endogenous levels of PPARα.
Text: (§3) Threshold cutoffs were set at fold change >1.4; p<0.01; and statistically significant in at least 2 experiments. The genes fatty acid CoA ligase 2 (FACL2), palmitoyl acyl-CoA oxidase 1 (ACOX1), and carnitine palmitoyl acyl-CoA transferase (CPT1A) are included for comparison based on published reports that they are PPARα responsive genes in HepG2 cells over expressing PPARα (Hsu et al., (2001) J. Biol. Chem. 276:27950-8; Lawrence et al., (2001) J. Biol. Chem. 276:31521-7).
(§4) Expression profiling: Expression profiling of RNA samples was performed essentially as described (Lockhart et al., (1996) Nat. Biotechnol. 14:1675-80) using the Affymetrix human U95Av2 array. Briefly, RNA was isolated from 100 mm cell culture dishes, DNased, and 15 μg used as a template for double stranded cDNA synthesis according to standard protocols (Invitrogen). […] The resultant cRNA products were purified using RNeasy columns (Qiagen), pooled, and quantitated spectrophotometrically. […]
as §2

Experiment [3] relates to LNCaP cells. Description: Transcriptional profiling by DNA microarray, LNCaP cells. Format: cell-based, human. How it is done: as §1, §2
The nature of experiment [4]: Serum triglyceride levels in fat-fed hamsters. It is filed as in vivo, hamster. How it is done:
Blood was sampled at 8, 16 and 48 hours following a single drug treatment for total triglyceride analysis. The mean levels (+/−SEM) for 3 animals per group are shown. The “*” indicates a statistically significant difference with respect to control (p<0.01) by Student's t-test. Animal studies: All procedures performed in this study were approved by the Animal Care and Use committee, and conform to the guide for the Care and Use of Laboratory Animals Act. Male Syrian Golden hamsters (Charles River, Wilmington Mass.) weighing 120-140 g, were used in the study. Animals were kept on a 12-hour light/dark cycle and allowed free access to normal chow and water. The animals were divided into groups according to weight, and fed either an high fat diet (0.5% cholesterol, 5% coconut oil) (N=3) or normal chow diet (N=3). […] At intervals of 0, 8, 16 and 48 hr animals were anesthetized with CO2. Blood was collected by cardiac puncture into EDTA containing tubes; plasma was isolated for immediate analysis of triglycerides by the Dade Clinical Analyser®. Animals were then euthanized with CO2. The liver and kidneys were collected, flash frozen in liquid nitrogen and stored at −80° C. for future gene expression analysis.

Experiment [5] deals with ACHN cells. The experiment can be described thus: Transcriptional profiling by DNA microarray, ACHN cells. Format: cell-based, human.
Text: as §3, §4, §2

The subject of experiment [6] is HK-2 cells. Description: Transcriptional profiling by DNA microarray, HK-2 cells. The note with it: 300 nM GW9578, 24 hours. Format: cell-based, human. How it is done: Points corresponding to PDK-4 and ADRP are highlighted in the plot. Points falling outside of the inner lines are changed by greater than 2-fold; those falling outside the outer lines by greater than 3-fold.
as §1, with “spectrophotometrically.” for “spectrophotometrically. For each sample, 20 μg of in vitro transcribed cRNA was fragmented by heating the sample to 94° C. in the presence of 40 mM Tris-acetate, pH 8.1, 100 mM potassium acetate, and 30 mM magnesium acetate.”
as §2

For `CCCCCCCN(CCc1ccc(SC(C)(C)C(=O)O)cc1)C(=O)Nc1ccc(F)cc1F` [GW9578, ureido-thioisobutyric acid], in experiment [1], the “Changes in gene expression in Caki-1 cells” value is listed as “only minor changes”. In addition, the “Response of PPARα responsive genes (FACL2, CPT1, ACOX1) in HepG2 cells” value in experiment [2] is given as “No response”. Further, in experiment [3], the “Changes in gene expression in LNCaP cells” value is “only minor changes”. In addition, the “Change of triglyceride levels compared with the control group” value in experiment [4] (single dose, 8, 16 and 48 hours) is on record as “significantly decreased”. Also, the “Serum triglyceride levels, 48 h” value in experiment [4] (single dose, mean +/- SEM, 3 animals, control 208.67) is given as 104.67 + 12.02*. In experiment [4] (single dose, mean +/- SEM, 3 animals, control 261.33), the “Serum triglyceride levels, 8 h” value is 106.00 + 46.22*. Besides, the “Serum triglyceride levels, 16 h” value in experiment [4] (single dose, mean +/- SEM, 3 animals, control 308.00) was 142.33 + 51.31*. The “ADRP induction in ACHN cells” value in experiment [5] was “significantly induced”. Also, in experiment [6], the “Increase of ADRP transcript versus controls” value was “approximately 4 fold” and the “Increase of PDK-4 transcript versus controls” value is given as “approximately 4 fold”.
